According to US12059453B2, “Blood plasma fractions for use in muscle regeneration” (Alkahest, Inc., priority 2019, dated 2024):

Tested on: C2C12 cells
Experiment: IGF-1 versus PPF1 dose-response on glucose utilization, C2C12 cells in 2% horse serum
Type: cell-based
Details: treatment day 5, read day 6
Protocol: FIG. 16A and FIG. 16B report the effects of insulin-like growth factor-1 (IGF-1) on glucose utilization in C2C12 cells treated in 2% horse serum. Cells were plated in DMEM plus 4.5 g/L of glucose and 10% fetal bovine serum (FBS) at Day −2 (d−2). At Day 0 (d0) media was refreshed with DMEM plus 1 g/L glucose and 2% horse serum. At Day 5 (d5) various treatments were added with glucose utilization determined at Day 6 (d6). […] Recombinant human IGF1 was purchased from R&D Systems (Cat. 291-G1). […] IGF-1 is known to have an impact on metabolism of myotubes, and its presence in PPF1 has been calculated as approximately 14.88 ng/mL. […] Thus, other factors must necessarily be involved in the effects of PPF1.

Substance: recombinant human IGF-1: Recombinant human IGF1 purchased from R&D Systems (Cat. 291-G1)
- EC50, glucose utilization: 0.01743 mg/L
